Assay results published in EPA's ToxValDB 9.5 (doi:10.2903/j.efsa.2017.4980).
≈ marks a conversion by molar mass, not a printed value.

Columns and labels:
[1] = test system: Typhlodromus pyri; experiment: LR50; higher = less toxic; conditions: not reported; mortality
[2] = test system: Tagia sp.; conditions: acute; duration: 14 days; mortality
[3] = test system: Colinus virginianus
[4] = test system: Canidae; conditions: oral, Dog Other, organ weight
[5] = test system: Anas platyrhynchos; conditions: reproductive
[6] = test system: Rattus norvegicus
[7] = test system: Oncorhynchus mykiss
[8] = test system: Neomysis kadiakensis
[9] = test system: Landoltia sp.; conditions: chronic/long-term; duration: 14 days
[10] = test system: Apis mellifera; conditions: acute, mortality

Compound: CCC(C)(NC(=O)c1cc(Cl)c(C)c(Cl)c1)C(=O)CCl (configuration not stated) [Zoxamide]
- LR50 [1]: > 300 g/ha
- LC50 [2]: > 1070 mg/kg
- NOEC [2]: 66.7 mg/kg
- LD50 ([3]; acute, oral, mortality): > 2000 mg/kg-day
- NOEC ([3]; reproduction developmental): 171 mg/kg-day
- NOAEL ([4]; chronic, duration: 1 years): 50 mg/kg-day
- NOAEL ([4]; subchronic, duration: 90 days): 50 mg/kg-day
- NOEC [5]: 123 mg/kg-day
- LD50 ([6]; acute, oral, mortality): > 5000 mg/kg-day
- NOAEL ([6]; reproduction developmental, body weight): 360 mg/kg-day
- LC50 ([7]; acute, duration: 96 hours, oral, feed, mortality): 0.16 µg/mL (≈ 0.475 µM)
- NOEC ([7]; chronic/long-term, duration: 95 days): 0.00348 mg/L
- LC50 ([8]; acute, duration: 96 hours, mortality): 0.076 µg/mL (≈ 0.226 µM)
- NOEC ([8]; chronic/long-term, duration: 27 days): 0.0072 mg/L
- NOEC [9]: 0.009 mg/L
- LD50 ([10]; dermal): > 100 µg/piece
- LD50 ([10]; oral, unspecified): > 33 µg/piece
